Values quoted from earlier work as cited in patent US20220249374A1, “RADIOTHERAPEUTIC MICROSPHERES” (priority 2019, published 2022).

Tested on: HCC
Details: patients with HCC too advanced for resection or localized ablation

For CNC(=O)c1cc(Oc2ccc(NC(=O)Nc3ccc(Cl)c(C(F)(F)F)c3)cc2)ccn1 [Nexavar, sorafenib], the prolongation of survival is given as “three”.
